Assay results reported in PMC5989697 (ACS Catalysis, 2018).

Target: T1, eugenol oxidase (EUGO) (Rhodococcus jostii, UniProt Q0SBK1)
T1 sequence (Q0SBK1 1-526): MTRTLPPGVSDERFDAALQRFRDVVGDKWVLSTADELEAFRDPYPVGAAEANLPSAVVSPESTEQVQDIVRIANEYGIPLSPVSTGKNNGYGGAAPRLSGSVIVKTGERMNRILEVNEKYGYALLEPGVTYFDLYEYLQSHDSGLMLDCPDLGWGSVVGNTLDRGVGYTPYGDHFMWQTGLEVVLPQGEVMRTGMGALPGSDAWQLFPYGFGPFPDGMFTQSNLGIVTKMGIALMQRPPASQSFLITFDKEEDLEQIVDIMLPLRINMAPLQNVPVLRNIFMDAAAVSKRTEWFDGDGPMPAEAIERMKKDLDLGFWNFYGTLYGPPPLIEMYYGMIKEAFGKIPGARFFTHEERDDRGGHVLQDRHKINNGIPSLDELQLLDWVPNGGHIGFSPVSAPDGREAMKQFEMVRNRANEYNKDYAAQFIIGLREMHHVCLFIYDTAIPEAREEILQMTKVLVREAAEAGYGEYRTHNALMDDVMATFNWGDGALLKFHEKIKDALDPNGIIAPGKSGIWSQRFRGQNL
Assay: steady-state kinetics
Assay type: biochemical

- Km: 770 nM
SMILES: C=CCc1cc(OC)c(O)c(OC)c1 [compound 1, 2,6-dimethoxy-4-allylphenol]
